Laboratory results taken from US9409888B2, “Dimeric compounds” (priority 2012, dated 2016).

Experiments:
BIR2 domain of XIAP = BIR2 domain of XIAP (Homo sapiens (Human), UniProt P98170, C202A/C213G); experiment: TR-FRET assay for BIR2: inhibition of binding of XIAP BIR2 domain to Peptide A (SMAC-derived peptide); conditions: 6× His-tagged BIR2 domain (aa 124-240 of XIAP) 10 nM, Peptide A 20 nM
Protocol: TR-FRET Assay for BIR2 and BIR3
The peptides were labeled with the fluorescent tags FITC or TAMRA and Kd values were determined by fluorescence polarization assay. […] The peptide sequence was derivatized with biotin to provide […]-(ε-biotin)-OH 1:2 TFA as the substrate for the TR-FRET assay.
The XIAP protein sequence was obtained from the SWISS-PROT protein sequence database and the BIR2 and BIR3 domains were derived from that. The sequence of the BIR2 domain used for the TR-FRET assay is […].
Time-resolved fluorescence resonance energy transfer (TR-FRET) signals were measured 1 hour later at room temperature. Test compound potency was assessed at 10 serially diluted concentrations. Percentage of inhibition at each concentration was determined to generate an IC50 value for each test compound.

BIR3 domain of XIAP = BIR3 domain of XIAP (Homo sapiens (Human), UniProt P98170); experiment: TR-FRET assay for BIR3: inhibition of binding of XIAP BIR3 domain to Peptide A (SMAC-derived peptide); conditions: 6× His-tagged BIR3 domain (aa 241-356 of XIAP) 10 nM, Peptide A 20 nM
Chain of BIR3 domain of XIAP (P98170 other isoform, or with tags, fused parts or gaps): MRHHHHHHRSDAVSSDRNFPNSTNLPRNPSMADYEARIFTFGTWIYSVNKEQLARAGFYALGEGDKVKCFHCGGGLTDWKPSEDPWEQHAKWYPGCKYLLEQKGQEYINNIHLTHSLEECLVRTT

Chain of BIR2 domain of XIAP (P98170 other isoform, or with tags, fused parts or gaps, stated change not applied): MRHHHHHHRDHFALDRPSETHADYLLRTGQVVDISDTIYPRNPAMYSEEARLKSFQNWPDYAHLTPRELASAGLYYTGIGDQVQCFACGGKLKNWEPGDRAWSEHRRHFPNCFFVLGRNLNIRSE

Structure (SMILES)	IC50 (BIR2 domain of XIAP)	IC50 (BIR3 domain of XIAP)
CN[C@@H](C)C(=O)N[C@H]1CN(C(=O)c2cncc(C(=O)N3C[C@H](NC(=O)[C@H](C)NC)C(=O)N(Cc4c(OC)ccc5cc(Br)ccc45)c4ccccc43)c2)c2ccccc2N(Cc2c(OC)ccc3cc(Br)ccc23)C1=O [Ex 8, (2S)-N-[(3S)-5-[(6-Bromo-2-methoxy-1-naphthyl)methyl]-1-[5-[(3S)-5-[(6-bromo-2-methoxy-1-naphthyl)methyl]-3-[[(2S)-2-(methylamino)propanoyl]amino]-4-oxo-2,3-dihydro-1,5-benzodiazepine-1-carbonyl]pyridine-3-carbonyl]-4-oxo-2,3-dihydro-1,5-benzodiazepin-3-yl]-2-(methylamino)propanamide]	1.32 nM	> 5480 nM
CN[C@@H](C)C(=O)N[C@H]1CN(C(=O)c2ccc(C(=O)N3C[C@H](NC(=O)[C@H](C)NC)C(=O)N(Cc4c(OC)ccc5cc(Br)ccc45)c4ccccc43)c(C)c2)c2ccccc2N(Cc2c(OC)ccc3cc(Br)ccc23)C1=O [Ex 10, (2S)-N-[(3S)-5-[(6-Bromo-2-methoxy-1-naphthyl)methyl]-1-[4-[(3S)-5-[(6-bromo-2-methoxy-1-naphthyl)methyl]-3-[[(2S)-2-(methylamino)propanoyl]amino]-4-oxo-2,3-dihydro-1,5-benzodiazepine-1-carbonyl]-3-methyl-benzoyl]-4-oxo-2,3-dihydro-1,5-benzodiazepin-3-yl]-2-(methylamino)propanamide]	1.38 nM	> 5480 nM
CN[C@@H](C)C(=O)N[C@H]1CN(C(=O)c2cc(C)c(C(=O)N3C[C@H](NC(=O)[C@H](C)N)C(=O)N(Cc4c(OC)ccc5cc(Br)ccc45)c4ccccc43)cc2C)c2ccccc2N(Cc2c(OC)ccc3cc(Br)ccc23)C1=O [Ex 13, (2S)-2-Amino-N-[(3S)-5-[(6-bromo-2-methoxy-1-naphthyl)methyl]-1-[4-[(3S)-5-[(6-bromo-2-methoxy-1-naphthyl)methyl]-3-[[(2S)-2-(methylamino)propanoyl]amino]-4-oxo-2,3-dihydro-1,5-benzodiazepine-1-carbonyl]-2,5-dimethyl-benzoyl]-4-oxo-2,3-dihydro-1,5-benzodiazepin-3-yl]propanamide]	0.801 nM	> 5480 nM
CN[C@@H](C)C(=O)N[C@H]1CN(C(=O)CCCCCCC(=O)N2C[C@H](NC(=O)[C@H](C)NC)C(=O)N(Cc3c(OC)ccc4cc(Br)ccc34)c3ccccc32)c2ccccc2N(Cc2c(OC)ccc3cc(Br)ccc23)C1=O [Ex 18, (2S)-N-[(3S)-5-[(6-Bromo-2-methoxy-1-naphthyl)methyl]-1-[8-[(3S)-5-[(6-bromo-2-methoxy-1-naphthyl)methyl]-3-[[(2S)-2-(methylamino)propanoyl]amino]-4-oxo-2,3-dihydro-1,5-benzodiazepin-1-yl]-8-oxo-octanoyl]-4-oxo-2,3-dihydro-1,5-benzodiazepin-3-yl]-2-(methylamino)propanamide]	0.871 nM	> 5480 nM
